Test results taken from patent US10034886B2, “GLP-1 receptor modulators” (Celgene International II SÀRL, priority 2014, dated 2018).

Target: T1, GLP-1R (Homo sapiens, UniProt P43220)
T1 construct: host or cells: GLP-1R CRE-bla CHO-K1 cells
Experiment: EC20 GLP-1(9-36) PAM cAMP assay: dose response of compound in the presence of fixed concentration of GLP-1(9-36)
Format: cell-based
Details: GLP-1R CRE-bla CHO-K1 cells, compound dose response with fixed concentration of GLP-1(9-36), read-out: EC20 GLP-1(9-36) PAM EC50
In short: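 Positive allosteric modulation read as cAMP accumulation: compound titrations (12 points) combined with an EC20 level of GLP-1(9-36) on CHO-K1 GLP-1R CRE-bla cells, IBMX present, 30 min, 37 °C, pH 7.4 buffer. Luminescence converted to cAMP via standards; non-linear fit gave EC50 and Emax.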

T1 sequence (P43220 24-463): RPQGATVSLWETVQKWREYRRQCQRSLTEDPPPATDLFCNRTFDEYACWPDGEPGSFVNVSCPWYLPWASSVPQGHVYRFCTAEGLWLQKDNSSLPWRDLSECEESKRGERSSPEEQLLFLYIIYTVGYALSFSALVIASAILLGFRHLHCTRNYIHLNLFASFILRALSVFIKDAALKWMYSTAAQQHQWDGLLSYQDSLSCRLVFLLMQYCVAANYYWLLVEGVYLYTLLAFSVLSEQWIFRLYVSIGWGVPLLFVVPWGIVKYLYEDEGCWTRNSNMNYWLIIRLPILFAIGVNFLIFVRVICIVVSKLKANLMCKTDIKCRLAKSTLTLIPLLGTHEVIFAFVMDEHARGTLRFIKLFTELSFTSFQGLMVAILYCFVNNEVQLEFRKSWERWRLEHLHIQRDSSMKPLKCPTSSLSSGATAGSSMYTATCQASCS
T1 sequence (P01275 100-127 partner limits assumed): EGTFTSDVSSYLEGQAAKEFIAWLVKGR

Structure (SMILES) | EC50
CCCCc1ccc(C2CCCN(c3cnc(-c4ccc(C[C@H](NC(=O)c5ccc(C(C)(C)C)s5)C(=O)N5CC(C(=O)O)C5)cc4)nc3)CC2)cc1 (stereo partly drawn) [Compound 1508] | < 800 nM
CC(C)(C)c1ccc(C(=O)N[C@@H](Cc2ccc(-c3ncc(N4CCC(c5cccc(C(F)(F)F)c5)CC4)cn3)cc2)C(=O)N2CC(C(=O)O)C2)s1 [Compound 1482] | 800 to 2500 nM
CC(C)(C)c1ccc(C(=O)N[C@@H](Cc2ccc(-c3ncc(-c4ccc(-c5ccc(C6CCCCC6)cc5)cc4F)cn3)cc2)C(=O)N2CC(C(=O)O)C2)s1 [Compound 1212] | < 800 nM
CC[C@H]1CC[C@H](c2ccc(-c3cnc(-c4ccc(C[C@H](NC(=O)c5ccc(OC(F)(F)F)cc5)C(=O)O)cc4)nc3)cc2)CC1 [Compound 1384] | 800 to 2500 nM
CC[C@H]1CC[C@H](c2ccc(-c3cnc(-c4ccc(C[C@H](NC(=O)c5ccc(C(F)(F)F)nc5)C(=O)O)cc4)nc3)cc2)CC1 [Compound 1388] | 800 to 2500 nM

Results, then the compound that gave them:

EC50 | Structure (SMILES)
< 800 nM | CCC[C@H]1CC[C@H](C2CCN(c3cnc(-c4ccc(C[C@H](NC(=O)c5ccc(C(C)(C)C)s5)C(=O)N5CCC(C(=O)O)CC5)cc4)nc3)CC2)CC1 [Compound 1457]
< 800 nM | CCC[C@H]1CC[C@H](C2CCN(c3cnc(-c4ccc(C[C@H](NC(=O)c5ccc(C6CC6)s5)C(=O)N5CC(C(=O)O)C5)cc4)nc3)CC2)CC1 [Compound 1515]

Same assay, conditions: dose response of compound in presence of fixed concentration of GLP-1(9-36), GLP-1R CRE-bla CHO-K1 cells, read-out: EC20 GLP-1(9-36) PAM EC50

Structure (SMILES) | EC50
CCCCCCCOc1ccc(-c2cnc(-c3ccc(C[C@H](NC(=O)c4ccc(C(C)(C)C)s4)C(=O)N4CCCC4CC(=O)O)cc3)nc2)cc1 (stereo partly drawn) [Compound 621] | 2500 to 5000 nM
CCCCCCCOc1ccc(-c2cnc(-c3ccc(C[C@H](NC(=O)c4ccc(C(C)(C)C)s4)C(=O)N[C@H]4C[C@H](C(=O)O)C4)cc3)nc2)cc1 [Compound 875] | 800 to 2500 nM
CCCCCCCOc1ccc(-c2cnc(-c3ccc(C[C@H](NC(=O)c4ccc(C(C)(C)C)cc4)C(=O)NC(C(=O)O)C(O)c4ccccc4)cc3)nc2)cc1 (stereo partly drawn) [Compound 570] | < 800 nM
CCCCCCCOc1ccc(-c2cnc(-c3ccc(C[C@H](NC(=O)c4ccc(C(C)(C)C)s4)C(=O)N[C@@H](C(=O)O)[C@@H](C)O)cc3)nc2)cc1 [Compound 659] | < 800 nM
CC(=O)c1cccc(-c2ccc(-c3cnc(-c4ccc(C[C@H](NC(=O)c5ccc(C(C)(C)C)s5)C(=O)N5CC(C(=O)O)C5)cc4)nc3)c(F)c2)c1 [Compound 1193] | < 800 nM
CC[C@H]1CC[C@H](c2ccc(-c3cnc(-c4ccc(C[C@H](NC(=O)c5ccc(C(C)C)s5)C(=O)N5CC(C(=O)O)C5)cc4)nc3)cc2)CC1 [Compound 1167] | < 800 nM
CCCCCCCOc1ccc(-c2cnc(-c3ccc(C[C@H](NC(=O)c4ccc(C(C)(C)C)s4)C(=O)N[C@H](C(=O)O)[C@@H](N)c4ccccc4)cc3)nc2)cc1 [Compound 883] | 5000 to 10000 nM
CC(C)(C)c1ccc(C(=O)N[C@@H](Cc2ccc(-c3ncc(-c4nc(-c5ccc(C(C)(C)C)cc5)no4)cn3)cc2)C(=O)NCCC(=O)O)cc1 [Compound 745] | 800 to 2500 nM
CCc1ccc(/C=C/c2cnc(-c3ccc(C[C@H](NC(=O)c4ccc(C(C)(C)C)s4)C(=O)N[C@H](C)C(=O)O)cc3)nc2)cc1 [Compound 1055] | 2500 to 5000 nM
CCCCCCCOc1ccc(-c2cnc(-c3ccc(C[C@H](NC(=O)c4ccc(C(C)(C)C)cc4)C(=O)NC(CN(C)C)C(=O)O)cc3)nc2)cc1 (stereo partly drawn) [Compound 447] | 800 to 2500 nM
Cc1cc(-c2cnc(-c3ccc(C[C@H](NC(=O)c4ccc(C(C)(C)C)s4)C(=O)N[C@H](C)C(=O)O)cc3)nc2)ccc1OC(C)C [Compound 1007] | 800 to 2500 nM
CCCCCCCOc1ccc(-c2cnc(-c3ccc(C[C@H](NC(=O)c4ccc(CCCC)cc4)C(=O)N4CCC[C@H]4C(=O)O)cc3)nc2)cc1 [Compound 1075] | 800 to 2500 nM
CCCCCCCOc1ccc(-c2cnc(-c3ccc(C[C@H](NC(=O)c4ccc(C(C)(C)C)s4)C(=O)NCC4CCNC4)cc3)nc2)cc1 (stereo partly drawn) [Compound 390] | 800 to 2500 nM
C[C@@H](NC(=O)[C@H](Cc1ccc(-c2ncc(-c3ccc(-c4ccc(C(F)(F)F)cc4)c(F)c3)cn2)cc1)NC(=O)c1ccc(C(C)(C)C)s1)C(=O)O [Compound 1140] | < 800 nM
CCCCCCCOc1ccc(-c2cnc(-c3ccc(C[C@H](NC(=O)c4ccc(C(C)(C)C)s4)C(=O)NC(C(=O)O)C(O)c4ccccc4)cc3)nc2)cc1 (stereo partly drawn) [Compound 634] | < 800 nM
CC(C)(C)c1ccc(C(=O)N[C@@H](Cc2ccc(-c3ncc(-c4ccc(OCC5CC5)cc4)cn3)cc2)C(=O)N2CC(C(=O)O)C2)s1 [Compound 781] | 2500 to 5000 nM

Results, then the compound that gave them:

EC50 | Structure (SMILES)
800 to 2500 nM | CCCCCCCOc1ccc(-c2cnc(-c3ccc(C[C@H](NC(=O)c4ccc(C(C)C)cc4)C(=O)NCCC(=O)O)cc3)nc2)cc1 [Compound 446]
800 to 2500 nM | CCCCCCCOc1ccc(-c2cnc(-c3ccc(C[C@H](NC(=O)c4ccc(C(C)(C)C)cc4C)C(=O)N[C@H](C)C(=O)O)cc3)nc2)cc1 [Compound 843]
800 to 2500 nM | CCCCCCCOc1ccc(-c2cnc(-c3ccc(C[C@H](NC(=O)c4ccc(C(C)(C)C)s4)C(=O)N4CCC(C)(C(=O)O)C4)cc3)nc2)cc1 (stereo partly drawn) [Compound 637]
< 800 nM | CCc1ccc(C(=O)N[C@@H](Cc2ccc(-c3ncc(-c4ccc([C@H]5CC[C@H](CC)CC5)cc4)cn3)cc2)C(=O)N2CC(C(=O)O)C2)s1 [Compound 1153]
5000 to 10000 nM | CCCCCCCOc1ccc(-c2cnc(-c3ccc(CC(NC(=O)c4ccc(C(C)(C)C)s4)C(=O)NCCCCCC(=O)O)cc3)nc2)cc1 (stereo not drawn) [Compound 460]
800 to 2500 nM | CCCCCCCOc1ccc(-c2cnc(-c3ccc(C[C@H](NC(=O)c4ccc(C(C)(C)C)c(OC)c4)C(=O)N4CC[C@H](C(=O)O)C4)cc3)nc2)cc1 [Compound 862]
2500 to 5000 nM | C[C@@H](NC(=O)[C@H](Cc1ccc(-c2ncc(-c3ccc(C(=O)NCC4CCCCC4)cc3)cn2)cc1)NC(=O)c1ccc(C(C)(C)C)s1)C(=O)O [Compound 1043]
< 800 nM | CCCCCCCOc1ccc(-c2cnc(-c3ccc(C[C@H](NC(=O)c4ccc(C(C)(C)C)cc4)C(=O)NC(C(=O)O)C(O)c4ccccc4)cc3)nc2)cc1 (stereo partly drawn) [Compound 569]
800 to 2500 nM | CCCCCCCOc1ccc(-c2cnc(-c3ccc(C[C@H](NC(=O)c4ccc(C(C)(C)C)s4)C(=O)N[C@@H](Cc4ccccn4)C(=O)O)cc3)nc2)cc1 [Compound 628]
2500 to 5000 nM | CCCCCCCOc1ccc(-c2cnc(-c3ccc(C[C@H](NC(=O)c4ccc(C(C)(C)C)s4)C(=O)NC[C@@H]4CCNC4)cc3)nc2)cc1 [Compound 439]
800 to 2500 nM | CCCCCCCOc1ccc(-c2cnc(-c3ccc(C[C@H](NC(=O)c4ccc(C(C)(C)C)cc4)C(=O)NC(C(=O)O)C(C)c4ccccc4)cc3)nc2)cc1 (stereo partly drawn) [Compound 574]
5000 to 10000 nM | CCCCCCCOc1ccc(-c2cnc(-c3ccc(C[C@H](NC(=O)c4ccc(C(C)(C)C)s4)C(=O)N4CCC(C)(N)C4)cc3)nc2)cc1 (stereo partly drawn) [Compound 988]
800 to 2500 nM | CCCCCCCOc1ccc(-c2cnc(-c3ccc(C[C@H](NC(=O)c4ccc(C(C)(C)C)cc4)C(=O)NC(C(=O)O)c4ccc(C)cc4)cc3)nc2)cc1 (stereo partly drawn) [Compound 454]
800 to 2500 nM | CCCCCOc1ccc(-c2cnc(-c3ccc(C[C@H](NC(=O)c4ccc(C(C)(C)C)cc4)C(=O)NCCC(=O)O)cc3)nc2)cc1 [Compound 489]
< 800 nM | CCCCCCCOc1ccc(-c2cnc(-c3ccc(C[C@H](NC(=O)c4ccc(C(C)(C)C)s4)C(=O)NS(=O)(=O)CC)cc3)nc2)cc1 [Compound 420]
800 to 2500 nM | CC(C)CCCOc1ccc(-c2cnc(-c3ccc(C[C@H](NC(=O)c4ccc(C(C)(C)C)cc4)C(=O)NCCC(=O)O)cc3)nc2)cc1 [Compound 458]
